Holding throughout (format): cell-based
In one test the target is T1, human TLR7 (Homo sapiens, UniProt Q9NYK1).
T1 construct: host or cells: HEK-Blue cells (HEK293-derived reporter line)
T1 sequence (Q9NYK1 27-1049): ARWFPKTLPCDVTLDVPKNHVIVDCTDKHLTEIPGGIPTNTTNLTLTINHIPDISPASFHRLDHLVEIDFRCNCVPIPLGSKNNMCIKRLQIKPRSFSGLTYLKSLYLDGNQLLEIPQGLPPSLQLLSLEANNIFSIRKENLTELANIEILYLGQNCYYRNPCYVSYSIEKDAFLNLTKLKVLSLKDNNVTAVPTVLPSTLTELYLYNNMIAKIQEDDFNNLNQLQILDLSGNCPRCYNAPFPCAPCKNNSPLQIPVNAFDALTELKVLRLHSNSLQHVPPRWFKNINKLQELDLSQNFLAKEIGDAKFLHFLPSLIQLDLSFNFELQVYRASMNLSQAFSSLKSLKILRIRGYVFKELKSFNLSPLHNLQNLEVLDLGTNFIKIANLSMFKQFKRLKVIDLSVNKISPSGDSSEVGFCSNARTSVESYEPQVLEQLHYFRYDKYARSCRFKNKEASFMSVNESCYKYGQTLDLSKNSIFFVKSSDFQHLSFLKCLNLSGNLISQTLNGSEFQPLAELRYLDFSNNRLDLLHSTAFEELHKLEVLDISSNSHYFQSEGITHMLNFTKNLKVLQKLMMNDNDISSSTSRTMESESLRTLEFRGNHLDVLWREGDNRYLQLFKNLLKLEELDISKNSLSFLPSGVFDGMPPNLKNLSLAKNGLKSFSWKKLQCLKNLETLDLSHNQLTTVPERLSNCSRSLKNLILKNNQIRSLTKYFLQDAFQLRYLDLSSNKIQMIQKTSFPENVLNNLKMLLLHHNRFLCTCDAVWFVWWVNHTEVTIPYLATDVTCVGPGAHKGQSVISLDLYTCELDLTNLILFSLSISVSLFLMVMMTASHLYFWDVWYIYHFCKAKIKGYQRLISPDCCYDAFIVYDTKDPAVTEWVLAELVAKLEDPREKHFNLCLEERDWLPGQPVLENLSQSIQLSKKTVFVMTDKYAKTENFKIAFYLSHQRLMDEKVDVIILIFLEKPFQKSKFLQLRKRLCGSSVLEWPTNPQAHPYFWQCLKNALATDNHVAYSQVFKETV
Kind of test: TLR7 inhibition reporter assay (HEK-Blue cells, SEAP reporter, gardiquimod stimulation). As to conditions: HEK-Blue cells overexpressing human TLR7, SEAP reporter, gardiquimod 7.5 μM. A digest of the protocol: (§1)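 Cells seeded per well (15000 TLR7, 20,000 TLR8, 25,000 TLR9); compound added over 0.05 nM–50 μM for 30 min at room temperature; agonist added (TLR7 gardiquimod 7.5 μM, TLR8 R848 15.9 μM, TLR9 ODN2006 5 nM); 22 h at 37 °C; SEAP measured; percent inhibition calculated.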
(In general: In a reporter assay the amount or activity of a reporter protein is the signal.)

For a further test, the target named is T2, human TLR9 (Homo sapiens, UniProt Q9NR96).
T2 construct: host or cells: HEK-Blue cells (HEK293-derived reporter line)
T2 sequence (Q9NR96 26-1032): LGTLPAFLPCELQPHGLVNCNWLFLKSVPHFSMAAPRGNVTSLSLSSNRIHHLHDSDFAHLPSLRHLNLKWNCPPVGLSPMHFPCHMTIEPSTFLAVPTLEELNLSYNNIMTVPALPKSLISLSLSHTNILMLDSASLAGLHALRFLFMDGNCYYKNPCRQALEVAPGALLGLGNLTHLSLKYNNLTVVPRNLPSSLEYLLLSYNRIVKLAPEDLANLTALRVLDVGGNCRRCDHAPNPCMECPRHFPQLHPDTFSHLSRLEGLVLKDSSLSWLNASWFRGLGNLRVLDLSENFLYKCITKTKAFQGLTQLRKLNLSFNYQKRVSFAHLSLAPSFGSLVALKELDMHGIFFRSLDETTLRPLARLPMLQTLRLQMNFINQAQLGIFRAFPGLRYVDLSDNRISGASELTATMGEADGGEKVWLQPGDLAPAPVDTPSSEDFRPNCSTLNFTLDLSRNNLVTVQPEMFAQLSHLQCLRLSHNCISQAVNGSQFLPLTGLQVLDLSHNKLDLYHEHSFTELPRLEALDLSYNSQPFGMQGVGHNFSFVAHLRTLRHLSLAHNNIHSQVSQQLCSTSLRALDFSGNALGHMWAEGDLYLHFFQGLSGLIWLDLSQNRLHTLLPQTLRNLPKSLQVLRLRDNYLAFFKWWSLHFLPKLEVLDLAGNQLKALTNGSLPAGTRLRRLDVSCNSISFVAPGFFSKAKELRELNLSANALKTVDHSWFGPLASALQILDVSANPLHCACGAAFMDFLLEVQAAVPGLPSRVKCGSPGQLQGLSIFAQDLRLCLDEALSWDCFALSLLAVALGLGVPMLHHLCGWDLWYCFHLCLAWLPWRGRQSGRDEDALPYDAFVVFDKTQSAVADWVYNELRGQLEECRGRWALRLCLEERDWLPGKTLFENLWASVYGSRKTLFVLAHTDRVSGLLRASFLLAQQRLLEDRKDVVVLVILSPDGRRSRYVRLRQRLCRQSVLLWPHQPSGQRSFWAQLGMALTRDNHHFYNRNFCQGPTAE
In words: TLR9 inhibition reporter assay (HEK-Blue cells, SEAP reporter, ODN2006 stimulation). The following applies: HEK-Blue cells overexpressing human TLR9, SEAP reporter, ODN2006 5 nM. In a few lines:
as §1

A further test has as its target T3, human TLR8 (Homo sapiens, UniProt Q9NR97).
T3 construct: host or cells: HEK-Blue cells (HEK293-derived reporter line)
T3 sequence (Q9NR97 27-1041): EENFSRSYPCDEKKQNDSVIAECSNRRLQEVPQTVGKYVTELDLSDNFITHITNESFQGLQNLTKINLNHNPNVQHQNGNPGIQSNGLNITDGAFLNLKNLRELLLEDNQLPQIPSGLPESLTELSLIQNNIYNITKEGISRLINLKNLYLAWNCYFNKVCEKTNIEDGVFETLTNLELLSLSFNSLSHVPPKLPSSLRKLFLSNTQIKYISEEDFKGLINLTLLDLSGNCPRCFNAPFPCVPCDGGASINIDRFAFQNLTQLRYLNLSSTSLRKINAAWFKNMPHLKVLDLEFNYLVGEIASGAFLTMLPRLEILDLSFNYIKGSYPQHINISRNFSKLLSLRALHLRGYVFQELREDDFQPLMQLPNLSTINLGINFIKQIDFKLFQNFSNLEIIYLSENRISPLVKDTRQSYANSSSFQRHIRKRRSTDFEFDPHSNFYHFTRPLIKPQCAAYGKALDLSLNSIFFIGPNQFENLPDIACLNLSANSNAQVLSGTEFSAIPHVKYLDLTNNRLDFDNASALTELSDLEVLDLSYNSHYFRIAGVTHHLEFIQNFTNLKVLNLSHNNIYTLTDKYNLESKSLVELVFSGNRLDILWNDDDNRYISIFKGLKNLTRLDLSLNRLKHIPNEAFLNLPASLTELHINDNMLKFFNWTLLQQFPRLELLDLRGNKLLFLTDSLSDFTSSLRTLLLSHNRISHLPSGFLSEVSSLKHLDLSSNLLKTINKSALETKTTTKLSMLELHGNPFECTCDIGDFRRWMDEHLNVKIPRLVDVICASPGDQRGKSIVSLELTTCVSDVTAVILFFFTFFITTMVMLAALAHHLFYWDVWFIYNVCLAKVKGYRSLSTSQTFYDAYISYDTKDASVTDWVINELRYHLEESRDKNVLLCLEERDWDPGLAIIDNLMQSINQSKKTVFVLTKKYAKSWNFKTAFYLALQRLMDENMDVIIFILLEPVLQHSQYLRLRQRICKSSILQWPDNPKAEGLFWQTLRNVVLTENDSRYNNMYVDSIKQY
Kind of test: TLR8 inhibition reporter assay (HEK-Blue cells, SEAP reporter, R848 stimulation). The following applies: HEK-Blue cells overexpressing human TLR8, SEAP reporter, R848 15.9 μM. A digest of the protocol: as §1

Each structure is given as a SMILES string.

As usually defined, the IC50 is the concentration at which inhibition is half-maximal.

With `CC(C)c1c(-c2ccnc3[nH]ncc23)[nH]c2ccc(C3CCN(Cc4ccc(N5CCN(C)CC5)cc4)CC3)cc12` [Example 919, 4-(3-isopropyl-5-(1-(4-(4-methylpiperazin-1-yl)benzyl)piperidin-4-yl)-1H-indol-2-yl)-1H-pyrazolo[3,4-b]pyridine], the IC50 on human TLR7 was below 100 nM; at human TLR9, 100 to 1000 nM; on human TLR8 it was below 100 nM.

In the case of `CCc1c(-c2ccnc3[nH]ncc23)[nH]c2ccc(C3CCN(Cc4cocn4)CC3)cc12` [Example 920, 4-((4-(3-ethyl-2-(1H-pyrazolo[3,4-b]pyridin-4-yl)-1H-indol-5-yl)piperidin-1-yl)methyl)oxazole], the IC50 on human TLR7 was 100 to 1000 nM; at human TLR9, 1000 to 50000 nM; on human TLR8 it was below 100 nM.

Regarding `CC(C)c1c(-c2ccnc3[nH]ncc23)[nH]c2ccc(C3CCN(Cc4ccccc4OCCCN(C)C)CC3)cc12` [Example 921, 3-(2-((4-(3-isopropyl-2-(1H-pyrazolo[3,4-b]pyridin-4-yl)-1H-indol-5-yl)piperidin-1-yl)methyl)phenoxy)-N,N-dimethylpropan-1-amine], the figures for the IC50 against human TLR7, against human TLR9 and against human TLR8 were 100 to 1000 nM, 100 to 1000 nM and below 100 nM, respectively.

As to `Cc1cccc2cc(CN3CCC(c4ccc5[nH]c(-c6ccnc7[nH]ncc67)c(C(C)C)c5c4)CC3)c(Cl)nc12` [Example 922, 2-chloro-3-((4-(3-isopropyl-2-(1H-pyrazolo[3,4-b]pyridin-4-yl)-1H-indol-5-yl)piperidin-1-yl)methyl)-8-methylquinoline], the IC50 against human TLR7, on human TLR9 and against human TLR8 was 1000 to 50000 nM each time.

On to `COc1cc(CN(C)C)cc(CN2CCC(c3ccc4[nH]c(-c5ccnc6[nH]ncc56)c(C(C)C)c4c3)CC2)c1O` [Example 924, 4-((dimethylamino)methyl)-2-((4-(3-isopropyl-2-(1H-pyrazolo[3,4-b]pyridin-4-yl)-1H-indol-5-yl)piperidin-1-yl)methyl)-6-methoxyphenol], for which the IC50 at human TLR7 was below 100 nM; against human TLR9, 100 to 1000 nM; against human TLR8 it was below 100 nM.

In the case of `CC(C)c1c(-c2ccnc3[nH]ncc23)[nH]c2ccc(C3CCN(Cc4csc(N)n4)CC3)cc12` [Example 925, 4-((4-(3-isopropyl-2-(1H-pyrazolo[3,4-b]pyridin-4-yl)-1H-indol-5-yl)piperidin-1-yl)methyl)thiazol-2-amine], the IC50 at human TLR7 was below 100 nM; against human TLR9, 1000 to 50000 nM; against human TLR8, below 100 nM.

As for `CC(C)c1c(-c2ccnc3[nH]ncc23)[nH]c2ccc(C3CCN(Cc4cnc(N)s4)CC3)cc12` [Example 926, 5-((4-(3-isopropyl-2-(1H-pyrazolo[3,4-b]pyridin-4-yl)-1H-indol-5-yl)piperidin-1-yl)methyl)thiazol-2-amine], the IC50 was below 100 nM at human TLR7, 1000 to 50000 nM at human TLR9 and below 100 nM at human TLR8.

For the compound `CCc1c(-c2ccnc3[nH]ncc23)[nH]c2ccc(C3CCN(Cc4cscn4)CC3)cc12` [Example 927, 4-((4-(3-ethyl-2-(1H-pyrazolo[3,4-b]pyridin-4-yl)-1H-indol-5-yl)piperidin-1-yl)methyl)thiazole], the figures for the IC50 against human TLR7, against human TLR9 and against human TLR8 were below 100 nM, 1000 to 50000 nM and below 100 nM, respectively.

In the case of `CCc1c(-c2ccnc3[nH]ncc23)[nH]c2ccc(C3CCN(Cc4cncs4)CC3)cc12` [Example 928, 5-((4-(3-ethyl-2-(1H-pyrazolo[3,4-b]pyridin-4-yl)-1H-indol-5-yl)piperidin-1-yl)methyl)thiazole], the results for the IC50 at human TLR7, on human TLR9 and against human TLR8 were 100 to 1000 nM, 1000 to 50000 nM and below 100 nM, respectively.

As to `CCc1c(-c2ccnc3[nH]ncc23)[nH]c2ccc(C3CCN(Cc4nccs4)CC3)cc12` [Example 929, 2-((4-(3-ethyl-2-(1H-pyrazolo[3,4-b]pyridin-4-yl)-1H-indol-5-yl)piperidin-1-yl)methyl)thiazole], the IC50 on human TLR7 is 100 to 1000 nM; against human TLR9, 1000 to 50000 nM; at human TLR8, below 100 nM.

With `CCc1c(-c2ccnc3[nH]ncc23)[nH]c2ccc(C3CCN(Cc4csnn4)CC3)cc12` [Example 930, 4-((4-(3-ethyl-2-(1H-pyrazolo[3,4-b]pyridin-4-yl)-1H-indol-5-yl)piperidin-1-yl)methyl)-1,2,3-thiadiazole], the IC50 at human TLR7 is 100 to 1000 nM; against human TLR9, 1000 to 50000 nM; against human TLR8, below 100 nM.

As for `CCc1c(-c2ccnc3[nH]ncc23)[nH]c2ccc(C3CCN(Cc4cnc(N)s4)CC3)cc12` [Example 931, 5-((4-(3-ethyl-2-(1H-pyrazolo[3,4-b]pyridin-4-yl)-1H-indol-5-yl)piperidin-1-yl)methyl)thiazol-2-amine], the IC50 on human TLR7, against human TLR9 and against human TLR8 was above 50000 nM throughout.

For the origin of these results see US11739098B2 (BRISTOL-MYERS SQUIBB COMPANY, priority 2017, dated 2023).
